Assay: in vitro
Conditions: human, hek293t cells

**Q.** With `C=CC(=O)N(C[C@H]1CCCO1)C1CCC(CC)CC1` (stereo partly drawn) [1-D03, N-(4-ethylcyclohexyl)-N-{[(2R)-oxolan-2-yl]methyl}prop-2-enamide] as the compound, how does the viability at 48 h, 25 µM read?
**A.** 94.6%

**Q.** With `C=CC(=O)N(Cc1cccc2ccoc12)C1CCSCC1` [1-D04, N-[(1-benzofuran-7-yl)methyl]-N-(thian-4-yl)prop-2-enamide] as the compound, how does the viability at 48 h, 25 µM read?
**A.** 70.4%

**Q.** For `C=CC(=O)NC1CCOc2c(F)cccc21` (centres unmarked) [1-D05, N-(8-fluoro-3,4-dihydro-2H-1-benzopyran-4-yl)prop-2-enamide], which viability at 48 h, 25 µM is on record?
**A.** 99.1%

**Q.** With `C=CC(=O)NC1COCC1C` (centres unmarked) [1-D06, N-(4-methyloxolan-3-yl)prop-2-enamide] as the compound, how does the viability at 48 h, 25 µM read?
**A.** 77.2%

**Q.** With `C=CC(=O)N1CCCC(c2nn(C)cc2C(N)=O)C1` (centres unmarked) [1-D07, 1-methyl-3-[1-(prop-2-enoyl)piperidin-3-yl]-1H-pyrazole-4-carboxamide] as the compound, how does the viability at 48 h, 25 µM read?
**A.** 107%

**Q.** Which viability at 48 h, 25 µM does the source give for `C=CC(=O)Nc1nc(-c2cccs2)cs1` [1-D08, N-[4-(thiophen-2-yl)-1,3-thiazol-2-yl]prop-2-enamide] here?
**A.** 1.21%

**Q.** For `C=CC(=O)N1CCCC(n2ccnn2)C1` (centres unmarked) [1-D09, 1-[3-(1H-1,2,3-triazol-1-yl)piperidin-1-yl]prop-2-en-1-one], which viability at 48 h, 25 µM is on record?
**A.** 93.6%

**Q.** For `C=CC(=O)NC1CC(C2CCCCC2)C1` (centres unmarked) [1-D10, N-(3-cyclohexylcyclobutyl)prop-2-enamide], which viability at 48 h, 25 µM is on record?
**A.** 75.7%

**Q.** With `C=CC(=O)N(Cc1ccc(F)cn1)c1cnn(C2CCCC2)c1C` [1-D11, N-(1-cyclopentyl-5-methyl-1H-pyrazol-4-yl)-N-[(5-fluoropyridin-2-yl)methyl]prop-2-enamide] as the compound, how does the viability at 48 h, 25 µM read?
**A.** 97.3%

**Q.** With `C=CC(=O)Nc1ccc(N2CCN(CC)CC2)cc1` [1-D12, N-[4-(4-ethylpiperazin-1-yl)phenyl]prop-2-enamide] as the compound, how does the viability at 48 h, 25 µM read?
**A.** 77.2%

**Q.** For `C=CC(=O)NCCc1csc(C)n1` [1-D13, N-[2-(2-methyl-1,3-thiazol-4-yl)ethyl]prop-2-enamide], which viability at 48 h, 25 µM is on record?
**A.** 106%

**Q.** With `C=CC(=O)N1CCC(F)CC1` [1-D14, 1-(4-fluoropiperidin-1-yl)prop-2-en-1-one] as the compound, how does the viability at 48 h, 25 µM read?
**A.** 69.9%

**Q.** With `C=CC(=O)N(Cc1cnc(C2CC2)o1)C1CCCCC1C` (centres unmarked) [1-D15, N-[(2-cyclopropyl-1,3-oxazol-5-yl)methyl]-N-(2-methylcyclohexyl)prop-2-enamide] as the compound, how does the viability at 48 h, 25 µM read?
**A.** 118%

**Q.** For `C=CC(=O)NCC(=O)c1scc(C)c1Cl` [1-D16, N-[2-(3-chloro-4-methylthiophen-2-yl)-2-oxoethyl]prop-2-enamide], which viability at 48 h, 25 µM is on record?
**A.** 65.2%

**Q.** For `C=CC(=O)NCC1CCCCN1S(C)(=O)=O` (centres unmarked) [1-D17, N-[(1-methanesulfonylpiperidin-2-yl)methyl]prop-2-enamide], which viability at 48 h, 25 µM is on record?
**A.** 161%

**Q.** Which viability at 48 h, 25 µM does the source give for `C=CC(=O)N1CCn2c(nnc2C(F)(F)F)C1` [1-D18, 1-[3-(trifluoromethyl)-5H,6H,7H,8H-[1,2,4]triazolo[4,3-a]pyrazin-7-yl]prop-2-en-1-one] here?
**A.** 66.6%

**Q.** For `C=CC(=O)N1CCC(S(=O)(=O)NC(C)C)C1` (centres unmarked) [1-D19, 1-(prop-2-enoyl)-N-(propan-2-yl)pyrrolidine-3-sulfonamide], which viability at 48 h, 25 µM is on record?
**A.** 218%

**Q.** With `C=CC(=O)Nc1ccc(-c2nc3cc(C)ccc3o2)cc1` [1-D20, N-[4-(5-methyl-1,3-benzoxazol-2-yl)phenyl]prop-2-enamide] as the compound, how does the viability at 48 h, 25 µM read?
**A.** 1.53%

**Q.** For `C=CC(=O)Nc1ccc(CN2CCC(C)CC2)cc1` [1-D21, N-{4-[(4-methylpiperidin-1-yl)methyl]phenyl}prop-2-enamide], which viability at 48 h, 25 µM is on record?
**A.** 157%

**Q.** With `C=CC(=O)N1CC2(CCOCC2)C1c1ccco1` (centres unmarked) [1-D22, 1-[1-(furan-2-yl)-7-oxa-2-azaspiro[3.5]nonan-2-yl]prop-2-en-1-one] as the compound, how does the viability at 48 h, 25 µM read?
**A.** 72.1%

**Q.** For `C=CC(=O)N(C)C1CS(=O)(=O)C1` [1-E03, N-(1,1-dioxo-1lambda6-thietan-3-yl)-N-methylprop-2-enamide], which viability at 48 h, 25 µM is on record?
**A.** 86.3%

**Q.** For `C=CC(=O)Nc1cc(C(C)(C)C)nn1-c1ncccn1` [1-E04, N-[3-tert-butyl-1-(pyrimidin-2-yl)-1H-pyrazol-5-yl]prop-2-enamide], which viability at 48 h, 25 µM is on record?
**A.** 88.8%

**Q.** Which viability at 48 h, 25 µM does the source give for `C=CC(=O)Nc1cnn(CCF)c1` [1-E05, N-[1-(2-fluoroethyl)-1H-pyrazol-4-yl]prop-2-enamide] here?
**A.** 78.3%

**Q.** Which viability at 48 h, 25 µM does the source give for `C=CC(=O)N1CCC(C(=O)Nc2cc(Cl)ccc2SCC)CC1` [1-E06, N-[5-chloro-2-(ethylsulfanyl)phenyl]-1-(prop-2-enoyl)piperidine-4-carboxamide] here?
**A.** 111%

**Q.** Which viability at 48 h, 25 µM does the source give for `C=CC(=O)NCc1cccc2c1OCO2` [1-E07, N-[(1,3-dioxaindan-4-yl)methyl]prop-2-enamide] here?
**A.** 69.1%

**Q.** With `C=CC(=O)NC1C(=O)OCC1(C)C` (centres unmarked) [1-E08, N-(4,4-dimethyl-2-oxooxolan-3-yl)prop-2-enamide] as the compound, how does the viability at 48 h, 25 µM read?
**A.** 83.7%

**Q.** With `C=CC(=O)N1CCC(C(=O)N2CCc3ccccc32)CC1` [1-E09, 1-[4-(2,3-dihydro-1H-indole-1-carbonyl)piperidin-1-yl]prop-2-en-1-one] as the compound, how does the viability at 48 h, 25 µM read?
**A.** 68%

**Q.** With `C=CC(=O)NC1CCC(F)(F)CC1F` (centres unmarked) [1-E11, N-(2,4,4-trifluorocyclohexyl)prop-2-enamide] as the compound, how does the viability at 48 h, 25 µM read?
**A.** 69.4%

**Q.** Which viability at 48 h, 25 µM does the source give for `C=CC(=O)NC12CC3CC(CC(C3)C1)C2` [1-E12, N-(adamantan-1-yl)prop-2-enamide] here?
**A.** 56.7%

**Q.** With `C=CC(=O)Nc1c(C)cccc1SCC(=O)N(C)C` [1-E13, N-(2-{[(dimethylcarbamoyl)methyl]sulfanyl}-6-methylphenyl)prop-2-enamide] as the compound, how does the viability at 48 h, 25 µM read?
**A.** 78.8%

**Q.** For `C=CC(=O)N1CCC(C(=O)NCc2ccoc2C)CC1` [1-E14, N-[(2-methylfuran-3-yl)methyl]-1-(prop-2-enoyl)piperidine-4-carboxamide], which viability at 48 h, 25 µM is on record?
**A.** 85.4%

**Q.** With `C=CC(=O)N1CCC(O)(c2ccccc2)CC1` [1-E15, 1-(4-hydroxy-4-phenylpiperidin-1-yl)prop-2-en-1-one] as the compound, how does the viability at 48 h, 25 µM read?
**A.** 79.8%

**Q.** Which viability at 48 h, 25 µM does the source give for `C=CC(=O)Nc1cc(Cl)cc(C)c1OC` [1-E16, N-(5-chloro-2-methoxy-3-methylphenyl)prop-2-enamide] here?
**A.** 45.9%

**Q.** Which viability at 48 h, 25 µM does the source give for `C=CC(=O)NCc1c(C(F)(F)F)coc1C` [1-E17, N-{[2-methyl-4-(trifluoromethyl)furan-3-yl]methyl}prop-2-enamide] here?
**A.** 84.9%

**Q.** For `C=CC(=O)Nc1ccc(C(N)=O)nc1OC` [1-E18, 6-methoxy-5-(prop-2-enamido)pyridine-2-carboxamide], which viability at 48 h, 25 µM is on record?
**A.** 69.6%

**Q.** With `C=CC(=O)Nc1ccc2cc(N(C)C)ccc2c1` [1-E19, N-[6-(dimethylamino)naphthalen-2-yl]prop-2-enamide] as the compound, how does the viability at 48 h, 25 µM read?
**A.** 46.5%

**Q.** For `C=CC(=O)N1CCC(C(=O)NCc2ccc(Cl)cc2Cl)CC1` [1-E20, N-[(2,4-dichlorophenyl)methyl]-1-(prop-2-enoyl)piperidine-4-carboxamide], which viability at 48 h, 25 µM is on record?
**A.** 95.8%

**Q.** With `C=CC(=O)NCC(C)(C)C1CCCCC1` [1-E21, N-(2-cyclohexyl-2-methylpropyl)prop-2-enamide] as the compound, how does the viability at 48 h, 25 µM read?
**A.** 75.5%

**Q.** For `C=CC(=O)Nc1cnn(-c2ccccc2C)c1C(F)F` [1-E22, N-[5-(difluoromethyl)-1-(2-methylphenyl)-1H-pyrazol-4-yl]prop-2-enamide], which viability at 48 h, 25 µM is on record?
**A.** 116%

**Q.** For `C=CC(=O)N1CCN(CC(=O)NC)CC1` [1-F03, N-methyl-2-[4-(prop-2-enoyl)piperazin-1-yl]acetamide], which viability at 48 h, 25 µM is on record?
**A.** 158%

**Q.** With `C=CC(=O)N(Cc1cccc(Cl)c1F)C(C)C1CCOCC1` (centres unmarked) [1-F04, N-[(3-chloro-2-fluorophenyl)methyl]-N-[1-(oxan-4-yl)ethyl]prop-2-enamide] as the compound, how does the viability at 48 h, 25 µM read?
**A.** 58.7%

**Q.** For `C=CC(=O)Nc1cccc2c1CCN2C(C)=O` [1-F05, N-(1-acetyl-2,3-dihydro-1H-indol-4-yl)prop-2-enamide], which viability at 48 h, 25 µM is on record?
**A.** 110%

**Q.** Which viability at 48 h, 25 µM does the source give for `C=CC(=O)NC1CCOC1C` (centres unmarked) [1-F06, N-(2-methyloxolan-3-yl)prop-2-enamide] here?
**A.** 74.6%

**Q.** With `C=CC(=O)N(C)Cc1ccnn1CC` [1-F07, N-[(1-ethyl-1H-pyrazol-5-yl)methyl]-N-methylprop-2-enamide] as the compound, how does the viability at 48 h, 25 µM read?
**A.** 100%

**Q.** Which viability at 48 h, 25 µM does the source give for `C=CC(=O)Nc1cc(SCc2ccccc2C)ncn1` [1-F08, N-(6-{[(2-methylphenyl)methyl]sulfanyl}pyrimidin-4-yl)prop-2-enamide] here?
**A.** 0.816%

**Q.** For `C=CC(=O)N(Cc1c(C)cccc1OC)C1CCCCNC1=O` (centres unmarked) [1-F09, N-[(2-methoxy-6-methylphenyl)methyl]-N-(2-oxoazepan-3-yl)prop-2-enamide], which viability at 48 h, 25 µM is on record?
**A.** 85.8%

**Q.** With `C=CC(=O)NC(C)Cn1nc(C)cc1C` (centres unmarked) [1-F10, N-[1-(3,5-dimethyl-1H-pyrazol-1-yl)propan-2-yl]prop-2-enamide] as the compound, how does the viability at 48 h, 25 µM read?
**A.** 55.7%

**Q.** With `C=CC(=O)N(Cc1nccc2c1CCCC2)C1CCCC(OC)C1` (centres unmarked) [1-F11, N-(3-methoxycyclohexyl)-N-[(5,6,7,8-tetrahydroisoquinolin-1-yl)methyl]prop-2-enamide] as the compound, how does the viability at 48 h, 25 µM read?
**A.** 100%

**Q.** With `C=CC(=O)NCCC(=O)N1CCC2(CC(=O)c3ccccc3O2)C1` (centres unmarked) [1-F12, N-(3-oxo-3-{4-oxo-3,4-dihydrospiro[1-benzopyran-2,3'-pyrrolidin]-1'-yl}propyl)prop-2-enamide] as the compound, how does the viability at 48 h, 25 µM read?
**A.** 82.1%

**Q.** With `C=CC(=O)N(Cc1cc(F)cc(Cl)c1)C(C)C1CCOCC1` (centres unmarked) [1-F13, N-[(3-chloro-5-fluorophenyl)methyl]-N-[1-(oxan-4-yl)ethyl]prop-2-enamide] as the compound, how does the viability at 48 h, 25 µM read?
**A.** 110%

**Q.** With `C=CC(=O)Nc1cn(C)nc1OC(C)C` [1-F14, N-[1-methyl-3-(propan-2-yloxy)-1H-pyrazol-4-yl]prop-2-enamide] as the compound, how does the viability at 48 h, 25 µM read?
**A.** 71.2%

**Q.** For `C=CC(=O)N(Cc1nonc1C)CC1C(C)=CCCC1C` (centres unmarked) [1-F15, N-[(2,6-dimethylcyclohex-2-en-1-yl)methyl]-N-[(4-methyl-1,2,5-oxadiazol-3-yl)methyl]prop-2-enamide], which viability at 48 h, 25 µM is on record?
**A.** 108%

**Q.** With `C=CC(=O)NC1CCCCC12CCCC2` (centres unmarked) [1-F16, N-{spiro[4.5]decan-6-yl}prop-2-enamide] as the compound, how does the viability at 48 h, 25 µM read?
**A.** 77.6%

**Q.** For `C=CC(=O)NCC12CC3CC(CC(C3)C1)C2` [1-F17, N-[(adamantan-1-yl)methyl]prop-2-enamide], which viability at 48 h, 25 µM is on record?
**A.** 110%

**Q.** Which viability at 48 h, 25 µM does the source give for `C=CC(=O)NC1(c2cc(C)no2)CCOCC1` [1-F18, N-[4-(3-methyl-1,2-oxazol-5-yl)oxan-4-yl]prop-2-enamide] here?
**A.** 68.5%

**Q.** For `C=CC(=O)N1CCCC1c1c(C)nn(CC(C)C)c1Cl` (centres unmarked) [1-F19, 1-{2-[5-chloro-3-methyl-1-(2-methylpropyl)-1H-pyrazol-4-yl]pyrrolidin-1-yl}prop-2-en-1-one], which viability at 48 h, 25 µM is on record?
**A.** 119%

— publication PMC11995724, “Antibiotic target discovery by integrated phenotypic and activity-based profiling of electrophilic fragments” (Cell chemical biology, 2025)
